The source of these data is ChEMBL document CHEMBL5465560, “Selectivity Literature for EUbOPEN Chemogenomic Library” (2024).

Assay [1] addresses Casein kinase I isoform delta (Homo sapiens, UniProt P48730). The assay is described as follows: Selectivity interaction (SelectScreen profiling (Invitrogen)) EUB0000607a CSNK1D. Particulars: at 2 µM.
For assay [2], the target named is Serine/threonine-protein kinase PLK3 (Homo sapiens, UniProt Q9H4B4). The assay is described as follows: Selectivity interaction (KinomeScan (DiscoverX)) EUB0000607a PLK3. Particulars: at 10 µM.
Assay [3] deals with Serine/threonine-protein kinase Nek4 (Homo sapiens) (UniProt P51957). The conditions noted are these: at 10 µM.
The target in assay [4] is T1, Aurora kinase C (Homo sapiens) (UniProt Q9UQB9).
T1 sequence (whole entry): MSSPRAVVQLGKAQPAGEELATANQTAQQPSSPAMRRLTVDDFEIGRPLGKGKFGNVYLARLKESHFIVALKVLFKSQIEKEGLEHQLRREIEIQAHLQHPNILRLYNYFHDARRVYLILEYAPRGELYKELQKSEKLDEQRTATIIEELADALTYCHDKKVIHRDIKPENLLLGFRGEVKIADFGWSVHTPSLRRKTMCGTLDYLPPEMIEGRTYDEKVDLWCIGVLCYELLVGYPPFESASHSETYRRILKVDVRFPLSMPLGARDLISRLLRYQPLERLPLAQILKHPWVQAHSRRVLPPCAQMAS
The assay is described as follows: Selectivity interaction (KinomeScan (DiscoverX)) EUB0001619a AURKC. Particulars: at 1 µM.

For assay [5], the target named is T2, Serine/threonine-protein kinase LATS2 (Homo sapiens) (UniProt Q9NRM7).
T2 sequence (whole entry): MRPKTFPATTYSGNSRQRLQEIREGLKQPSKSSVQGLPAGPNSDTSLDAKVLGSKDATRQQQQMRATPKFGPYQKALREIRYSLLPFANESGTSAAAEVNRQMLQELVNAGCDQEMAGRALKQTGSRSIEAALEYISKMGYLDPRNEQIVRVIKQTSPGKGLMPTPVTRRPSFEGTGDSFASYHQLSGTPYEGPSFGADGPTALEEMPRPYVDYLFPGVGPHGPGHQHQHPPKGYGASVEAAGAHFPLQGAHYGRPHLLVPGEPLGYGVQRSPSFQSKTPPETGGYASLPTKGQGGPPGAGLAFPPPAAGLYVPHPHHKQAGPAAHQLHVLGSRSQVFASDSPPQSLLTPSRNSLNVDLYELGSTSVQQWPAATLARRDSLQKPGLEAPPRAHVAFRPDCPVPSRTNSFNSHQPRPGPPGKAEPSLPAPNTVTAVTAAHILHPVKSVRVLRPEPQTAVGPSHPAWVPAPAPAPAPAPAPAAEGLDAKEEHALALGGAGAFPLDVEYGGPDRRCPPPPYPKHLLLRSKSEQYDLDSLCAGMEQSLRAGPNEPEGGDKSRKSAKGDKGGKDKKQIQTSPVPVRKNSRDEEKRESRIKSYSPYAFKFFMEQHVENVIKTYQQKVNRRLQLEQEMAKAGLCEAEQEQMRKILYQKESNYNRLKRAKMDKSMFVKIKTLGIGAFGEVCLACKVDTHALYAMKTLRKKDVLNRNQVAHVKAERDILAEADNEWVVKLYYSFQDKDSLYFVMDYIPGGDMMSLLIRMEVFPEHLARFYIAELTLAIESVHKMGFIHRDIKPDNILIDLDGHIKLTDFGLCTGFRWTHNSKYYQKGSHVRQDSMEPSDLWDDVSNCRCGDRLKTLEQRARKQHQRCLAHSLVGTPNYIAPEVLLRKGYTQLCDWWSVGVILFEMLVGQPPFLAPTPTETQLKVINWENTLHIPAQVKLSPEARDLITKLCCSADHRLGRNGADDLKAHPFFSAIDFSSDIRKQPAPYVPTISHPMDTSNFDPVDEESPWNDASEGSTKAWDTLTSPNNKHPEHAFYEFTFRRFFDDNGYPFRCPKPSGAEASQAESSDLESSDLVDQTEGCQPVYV
Particulars: at 10 µM.

The target in assay [6] is Casein kinase II subunit alpha (Homo sapiens, UniProt P68400). In words: Selectivity interaction (KinomeScan (DiscoverX)) EUB0001049a CSNK2A1. The conditions noted are these: at 1 µM.
Assay [7] has as its target T3, Ephrin type-A receptor 8 (Homo sapiens) (UniProt P29322).
T3 sequence (whole entry): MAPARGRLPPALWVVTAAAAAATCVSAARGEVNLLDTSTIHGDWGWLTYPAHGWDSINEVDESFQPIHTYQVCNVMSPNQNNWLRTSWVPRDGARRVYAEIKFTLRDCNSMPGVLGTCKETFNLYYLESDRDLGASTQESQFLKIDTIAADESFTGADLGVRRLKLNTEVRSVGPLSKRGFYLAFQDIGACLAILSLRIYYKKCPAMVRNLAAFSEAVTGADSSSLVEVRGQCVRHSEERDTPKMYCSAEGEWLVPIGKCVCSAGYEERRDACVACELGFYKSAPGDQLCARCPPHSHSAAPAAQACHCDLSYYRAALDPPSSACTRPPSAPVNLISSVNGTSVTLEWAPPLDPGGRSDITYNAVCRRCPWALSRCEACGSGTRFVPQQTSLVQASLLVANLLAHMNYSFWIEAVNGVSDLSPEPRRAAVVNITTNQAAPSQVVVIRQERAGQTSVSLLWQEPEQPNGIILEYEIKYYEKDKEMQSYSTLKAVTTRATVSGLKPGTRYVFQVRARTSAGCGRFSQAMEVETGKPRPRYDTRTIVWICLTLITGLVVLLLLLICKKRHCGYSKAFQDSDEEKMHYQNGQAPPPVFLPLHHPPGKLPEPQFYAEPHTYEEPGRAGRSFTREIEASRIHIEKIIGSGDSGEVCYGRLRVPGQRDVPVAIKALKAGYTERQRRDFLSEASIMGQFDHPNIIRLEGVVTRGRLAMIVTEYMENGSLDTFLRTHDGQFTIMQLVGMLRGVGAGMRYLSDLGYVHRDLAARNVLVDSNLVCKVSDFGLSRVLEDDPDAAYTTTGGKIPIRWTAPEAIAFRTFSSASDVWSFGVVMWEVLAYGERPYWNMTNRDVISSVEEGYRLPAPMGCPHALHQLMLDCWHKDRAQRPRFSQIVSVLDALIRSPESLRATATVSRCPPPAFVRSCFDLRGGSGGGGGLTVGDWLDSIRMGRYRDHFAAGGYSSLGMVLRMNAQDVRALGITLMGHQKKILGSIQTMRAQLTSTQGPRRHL
In words: Selectivity interaction (KinomeScan (DiscoverX)) EUB0000618a EPHA8. Particulars: at 10 µM.

Chain of Serine/threonine-protein kinase PLK3 (Q9H4B4 whole entry, looked up): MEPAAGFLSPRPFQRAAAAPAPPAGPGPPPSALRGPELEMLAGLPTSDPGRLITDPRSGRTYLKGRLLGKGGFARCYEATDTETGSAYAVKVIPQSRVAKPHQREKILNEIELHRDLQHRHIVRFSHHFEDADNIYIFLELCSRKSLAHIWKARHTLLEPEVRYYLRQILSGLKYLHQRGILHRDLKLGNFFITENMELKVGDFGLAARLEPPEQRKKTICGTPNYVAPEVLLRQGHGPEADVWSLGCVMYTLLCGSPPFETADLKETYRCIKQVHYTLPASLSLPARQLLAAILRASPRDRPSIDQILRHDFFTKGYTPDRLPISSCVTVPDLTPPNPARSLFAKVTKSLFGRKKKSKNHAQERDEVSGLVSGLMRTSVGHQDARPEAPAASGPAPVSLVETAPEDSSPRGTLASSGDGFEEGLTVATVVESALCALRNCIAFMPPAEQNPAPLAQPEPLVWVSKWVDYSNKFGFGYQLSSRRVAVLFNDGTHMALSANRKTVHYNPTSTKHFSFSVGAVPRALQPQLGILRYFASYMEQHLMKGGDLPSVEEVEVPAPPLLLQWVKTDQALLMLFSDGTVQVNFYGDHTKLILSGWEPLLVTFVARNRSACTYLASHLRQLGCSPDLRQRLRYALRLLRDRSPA
Chain of Casein kinase I isoform delta (P48730 whole entry, looked up, canonical isoform): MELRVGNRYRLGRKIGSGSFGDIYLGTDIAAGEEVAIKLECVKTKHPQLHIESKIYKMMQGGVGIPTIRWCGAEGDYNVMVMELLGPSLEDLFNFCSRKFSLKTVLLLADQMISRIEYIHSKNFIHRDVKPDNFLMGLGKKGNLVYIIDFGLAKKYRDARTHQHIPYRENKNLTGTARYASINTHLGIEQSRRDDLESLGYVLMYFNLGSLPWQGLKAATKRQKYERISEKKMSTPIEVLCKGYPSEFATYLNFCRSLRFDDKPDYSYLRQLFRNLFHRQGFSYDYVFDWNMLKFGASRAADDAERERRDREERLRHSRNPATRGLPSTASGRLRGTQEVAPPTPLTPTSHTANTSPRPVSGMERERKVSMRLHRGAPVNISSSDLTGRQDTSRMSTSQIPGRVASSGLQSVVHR
Chain of Serine/threonine-protein kinase Nek4 (Homo sapiens) (P51957 whole entry, looked up): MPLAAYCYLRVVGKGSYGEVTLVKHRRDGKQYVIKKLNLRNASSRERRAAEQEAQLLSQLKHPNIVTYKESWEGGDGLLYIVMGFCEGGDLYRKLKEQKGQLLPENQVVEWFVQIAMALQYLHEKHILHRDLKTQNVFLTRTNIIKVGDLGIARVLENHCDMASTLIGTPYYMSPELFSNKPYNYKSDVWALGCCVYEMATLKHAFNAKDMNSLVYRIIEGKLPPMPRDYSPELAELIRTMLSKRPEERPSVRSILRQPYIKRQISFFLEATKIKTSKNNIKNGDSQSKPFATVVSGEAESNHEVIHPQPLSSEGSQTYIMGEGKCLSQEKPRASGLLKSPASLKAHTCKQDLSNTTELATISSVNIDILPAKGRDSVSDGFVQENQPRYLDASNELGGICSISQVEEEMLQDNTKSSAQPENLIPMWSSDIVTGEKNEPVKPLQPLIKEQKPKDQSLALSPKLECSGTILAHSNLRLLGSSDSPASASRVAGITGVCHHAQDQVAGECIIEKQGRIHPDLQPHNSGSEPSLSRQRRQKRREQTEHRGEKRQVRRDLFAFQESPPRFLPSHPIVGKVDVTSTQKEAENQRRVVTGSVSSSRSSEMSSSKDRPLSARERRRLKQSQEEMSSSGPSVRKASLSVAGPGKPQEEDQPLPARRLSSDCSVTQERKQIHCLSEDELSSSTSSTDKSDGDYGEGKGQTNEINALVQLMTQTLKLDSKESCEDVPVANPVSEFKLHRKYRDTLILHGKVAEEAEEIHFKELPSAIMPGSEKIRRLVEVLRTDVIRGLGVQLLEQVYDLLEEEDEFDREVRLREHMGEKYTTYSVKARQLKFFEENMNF
Chain of Casein kinase II subunit alpha (P68400 whole entry, looked up): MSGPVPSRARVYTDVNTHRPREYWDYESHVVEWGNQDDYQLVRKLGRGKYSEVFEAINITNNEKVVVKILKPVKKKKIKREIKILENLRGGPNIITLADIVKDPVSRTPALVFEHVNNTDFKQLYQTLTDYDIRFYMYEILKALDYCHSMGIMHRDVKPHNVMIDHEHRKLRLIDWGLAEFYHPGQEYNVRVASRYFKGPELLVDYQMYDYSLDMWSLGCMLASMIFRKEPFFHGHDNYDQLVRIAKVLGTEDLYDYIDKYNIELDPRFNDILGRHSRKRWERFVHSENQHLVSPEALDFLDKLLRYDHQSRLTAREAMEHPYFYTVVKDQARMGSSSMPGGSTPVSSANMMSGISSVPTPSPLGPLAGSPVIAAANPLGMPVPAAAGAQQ

`CNC(=O)Nc1ccc(-c2nc(N3CC4CCC(C3)O4)c3cnn(C4CCC5(CC4)OCCO5)c3n2)cc1` yielded a % of inhibition in assay [1] of 2%. The same molecule came in with a % of control in assay [2] of 100%.
Consider `Cc1cc([C@@H](C)Nc2ccccc2C(=O)O)c2nc(N3CCOCC3)cc(=O)n2c1` [AZD-6482], for which, in assay [3], the % of control came out at 61%.
Molecule `N#Cc1cccc(-c2c[nH]c3ncnc(N4CCOCC4)c23)c1` had a % of control in assay [4] of 43%.
On to `CCN(CC)CCCCNc1ncc2cc(-c3cc(OC)cc(OC)c3)c(NC(=O)NC(C)(C)C)nc2n1`, for which the % of control in assay [5] amounted to 100%.
In turn, `COc1cc(Nc2nc(C)cc(-c3cnn4nc(OC)ccc34)n2)cc(C(F)(F)F)c1` displayed a % of control in assay [6] of 83%.
`O[C@H]1CC[C@H](Nc2ncc3nc(Nc4c(F)cc(F)cc4F)n([C@H]4CCOC4)c3n2)CC1` registered a % of control in assay [7] of 72%.
